Data taken from PubChem BioAssay (NCI).
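Grown in 96-well plates, cells were treated for 48 hours with each compound at five concentrations. Insufficient inhibition: endpoint recorded as highest concentration tested. At the GI50, growth is halved. TGI is the concentration that stops growth completely.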

Experiments:
Experiment in all cases: NCI-60 cell line screen, 48 h
ACHN renal = system: ACHN renal
HS 578T breast = system: HS 578T breast
IGROV1 ovarian = system: IGROV1 ovarian
OVCAR-5 ovarian = system: OVCAR-5 ovarian
K-562 leukemia = system: K-562 leukemia
SR leukemia = system: SR leukemia
U251 CNS = system: U251 CNS
HCT-15 colon = system: HCT-15 colon
SW-620 colon = system: SW-620 colon
A549 NSCLC = system: A549 NSCLC
EKVX NSCLC = system: EKVX NSCLC
RPMI-8226 leukemia = system: RPMI-8226 leukemia
MOLT-4 leukemia = system: MOLT-4 leukemia
HOP-92 NSCLC = system: HOP-92 NSCLC
NCI-H226 lung = system: NCI-H226 lung
NCI/ADR-RES ovarian = system: NCI/ADR-RES ovarian
UO-31 renal = system: UO-31 renal
MALME-3M melanoma = system: MALME-3M melanoma
SF-539 CNS = system: SF-539 CNS
SK-MEL-28 melanoma = system: SK-MEL-28 melanoma
SF-295 CNS = system: SF-295 CNS
NCI-H23 lung = system: NCI-H23 lung
M14 melanoma = system: M14 melanoma
PC-3 prostate = system: PC-3 prostate
HL-60(TB) leukemia = system: HL-60(TB) leukemia
UACC-62 melanoma = system: UACC-62 melanoma
TK-10 renal = system: TK-10 renal
HT29 colon = system: HT29 colon
CCRF-CEM leukemia = system: CCRF-CEM leukemia
NCI-H460 lung = system: NCI-H460 lung
UACC-257 melanoma = system: UACC-257 melanoma
SNB-75 CNS = system: SNB-75 CNS
SK-MEL-5 melanoma = system: SK-MEL-5 melanoma
COLO 205 colon = system: COLO 205 colon
SF-268 CNS = system: SF-268 CNS
MDA-MB-435 = system: MDA-MB-435
A498 renal = system: A498 renal
SN12C renal = system: SN12C renal
NCI-H522 lung = system: NCI-H522 lung
HCC-2998 colon = system: HCC-2998 colon
SK-MEL-2 melanoma = system: SK-MEL-2 melanoma
SK-OV-3 ovarian = system: SK-OV-3 ovarian
BT-549 breast = system: BT-549 breast
HCT-116 colon = system: HCT-116 colon
OVCAR-8 ovarian = system: OVCAR-8 ovarian
MDA-MB-231 breast = system: MDA-MB-231 breast
786-0 renal = system: 786-0 renal
RXF 393 renal = system: RXF 393 renal
LOX IMVI melanoma = system: LOX IMVI melanoma
SNB-19 CNS = system: SNB-19 CNS
OVCAR-3 ovarian = system: OVCAR-3 ovarian
OVCAR-4 ovarian = system: OVCAR-4 ovarian
MCF7 breast = system: MCF7 breast
KM12 colon = system: KM12 colon
CAKI-1 renal = system: CAKI-1 renal
HOP-62 NSCLC = system: HOP-62 NSCLC
DU-145 prostate = system: DU-145 prostate
T-47D breast = system: T-47D breast
MDA-N = system: MDA-N

Cc1ccc(Nc2cc(Cl)c([N+](=O)[O-])cc2[N+](=O)[O-])cc1
GI50 (ACHN renal): 4.73 µM
TGI (ACHN renal): 16.2 µM
GI50 (HS 578T breast): 7.63 µM
TGI (HS 578T breast): > 24.7 µM
GI50 (IGROV1 ovarian): 3.89 µM
TGI (IGROV1 ovarian): 10.4 µM
GI50 (OVCAR-5 ovarian): 6.62 µM
TGI (OVCAR-5 ovarian): 20.9 µM
GI50 (K-562 leukemia): 0.614 µM
TGI (K-562 leukemia): > 100 µM
GI50 (SR leukemia): 0.927 µM
TGI (SR leukemia): 18.1 µM
GI50 (U251 CNS): 3.36 µM
TGI (U251 CNS): 12.4 µM
GI50 (HCT-15 colon): 4.12 µM
TGI (HCT-15 colon): 16.5 µM
GI50 (SW-620 colon): 2.35 µM
TGI (SW-620 colon): 6.82 µM
GI50 (A549 NSCLC): 7.76 µM
TGI (A549 NSCLC): 22.1 µM
GI50 (EKVX NSCLC): 14.7 µM
TGI (EKVX NSCLC): 29.7 µM
GI50 (RPMI-8226 leukemia): 2.92 µM
TGI (RPMI-8226 leukemia): 9.45 µM
GI50 (MOLT-4 leukemia): 3.87 µM
TGI (MOLT-4 leukemia): > 52.4 µM
GI50 (HOP-92 NSCLC): 2.69 µM
TGI (HOP-92 NSCLC): 9.48 µM
GI50 (NCI-H226 lung): 2.59 µM
TGI (NCI-H226 lung): 6.81 µM
GI50 (NCI/ADR-RES ovarian): 3.83 µM
TGI (NCI/ADR-RES ovarian): 24 µM
GI50 (UO-31 renal): 4.71 µM
TGI (UO-31 renal): 17.5 µM
GI50 (MALME-3M melanoma): 5.72 µM
TGI (MALME-3M melanoma): 14 µM
GI50 (SF-539 CNS): 4 µM
TGI (SF-539 CNS): 15.3 µM
GI50 (SK-MEL-28 melanoma): 2.77 µM
TGI (SK-MEL-28 melanoma): 7.27 µM
GI50 (SF-295 CNS): 14.4 µM
TGI (SF-295 CNS): 34 µM
GI50 (NCI-H23 lung): 3.66 µM
TGI (NCI-H23 lung): 14.2 µM
GI50 (M14 melanoma): 3.96 µM
TGI (M14 melanoma): 15.6 µM
GI50 (PC-3 prostate): 3.59 µM
TGI (PC-3 prostate): 14.2 µM
GI50 (HL-60(TB) leukemia): 3.62 µM
TGI (HL-60(TB) leukemia): 14.6 µM
GI50 (UACC-62 melanoma): 4.13 µM
TGI (UACC-62 melanoma): 15.6 µM
GI50 (TK-10 renal): 6.03 µM
TGI (TK-10 renal): 17.5 µM
GI50 (HT29 colon): 3.04 µM
TGI (HT29 colon): 8.07 µM
GI50 (CCRF-CEM leukemia): 1.96 µM
TGI (CCRF-CEM leukemia): 19.8 µM
GI50 (NCI-H460 lung): 2.35 µM
TGI (NCI-H460 lung): 5.45 µM
GI50 (UACC-257 melanoma): 5.25 µM
TGI (UACC-257 melanoma): 15.7 µM
GI50 (SNB-75 CNS): 3.91 µM
TGI (SNB-75 CNS): 17.5 µM
GI50 (SK-MEL-5 melanoma): 3.19 µM
TGI (SK-MEL-5 melanoma): 9.51 µM
GI50 (COLO 205 colon): 2.11 µM
TGI (COLO 205 colon): 3.92 µM
GI50 (SF-268 CNS): 3.63 µM
TGI (SF-268 CNS): 10.3 µM
GI50 (MDA-MB-435): 3.07 µM
TGI (MDA-MB-435): 10.8 µM
GI50 (A498 renal): 13.3 µM
TGI (A498 renal): 26.1 µM
GI50 (SN12C renal): 4.1 µM
TGI (SN12C renal): 14.6 µM
GI50 (NCI-H522 lung): 0.805 µM
TGI (NCI-H522 lung): 2.15 µM
GI50 (HCC-2998 colon): 2.26 µM
TGI (HCC-2998 colon): 4.81 µM
GI50 (SK-MEL-2 melanoma): 3.31 µM
TGI (SK-MEL-2 melanoma): 8.94 µM
GI50 (SK-OV-3 ovarian): 4.55 µM
TGI (SK-OV-3 ovarian): 13.1 µM
GI50 (BT-549 breast): 3.72 µM
TGI (BT-549 breast): 11.8 µM
GI50 (HCT-116 colon): 2.59 µM
TGI (HCT-116 colon): 6.94 µM
GI50 (OVCAR-8 ovarian): 3.37 µM
TGI (OVCAR-8 ovarian): 13.9 µM
GI50 (MDA-MB-231 breast): 4.42 µM
TGI (MDA-MB-231 breast): 15.8 µM
GI50 (786-0 renal): 3.97 µM
TGI (786-0 renal): 14 µM
GI50 (RXF 393 renal): 2.57 µM
TGI (RXF 393 renal): 6.66 µM
GI50 (LOX IMVI melanoma): 1.15 µM
TGI (LOX IMVI melanoma): 5.62 µM
GI50 (SNB-19 CNS): 6.33 µM
TGI (SNB-19 CNS): 17.7 µM
GI50 (OVCAR-3 ovarian): 3.33 µM
TGI (OVCAR-3 ovarian): 7.85 µM
GI50 (OVCAR-4 ovarian): 4.52 µM
TGI (OVCAR-4 ovarian): 16.2 µM
GI50 (MCF7 breast): 2.7 µM
TGI (MCF7 breast): 7.68 µM
GI50 (KM12 colon): 3.24 µM
TGI (KM12 colon): 8.8 µM
GI50 (CAKI-1 renal): 4.19 µM
TGI (CAKI-1 renal): 17.4 µM
GI50 (HOP-62 NSCLC): 5.82 µM
TGI (HOP-62 NSCLC): 16.2 µM
GI50 (DU-145 prostate): 2.95 µM
TGI (DU-145 prostate): 7.55 µM
GI50 (T-47D breast): 3.28 µM
TGI (T-47D breast): 9.51 µM

c1ccc2cc3c(cc2c1)Nc1c2ccccc2nc2cccc-3c12
TGI (ACHN renal): 2.88 µM
TGI (IGROV1 ovarian): 2.75 µM
TGI (OVCAR-5 ovarian): 3.22 µM
TGI (K-562 leukemia): > 100 µM
TGI (SW-620 colon): 2.91 µM
TGI (A549 NSCLC): 3.3 µM
TGI (HOP-92 NSCLC): 2.86 µM
TGI (NCI-H226 lung): 5.03 µM
TGI (NCI/ADR-RES ovarian): 4.69 µM
TGI (UO-31 renal): 3 µM
TGI (MALME-3M melanoma): 3.07 µM
TGI (SK-MEL-28 melanoma): 3.12 µM
TGI (SF-295 CNS): 2.96 µM
TGI (NCI-H23 lung): 2.61 µM
TGI (M14 melanoma): 3.76 µM
TGI (PC-3 prostate): 2.87 µM
TGI (UACC-62 melanoma): 3.57 µM
TGI (TK-10 renal): 3.28 µM
TGI (HT29 colon): 3.2 µM
TGI (NCI-H460 lung): 3.26 µM
TGI (UACC-257 melanoma): 2.92 µM
TGI (SK-MEL-5 melanoma): 3.11 µM
TGI (COLO 205 colon): 3.02 µM
TGI (MDA-MB-435): 3.43 µM
TGI (A498 renal): 6.8 µM
TGI (SN12C renal): 3.08 µM
TGI (HCC-2998 colon): 3.1 µM
TGI (SK-MEL-2 melanoma): 2.84 µM
TGI (SK-OV-3 ovarian): 3.01 µM
TGI (BT-549 breast): 38.4 µM
TGI (MDA-N): 2.83 µM
TGI (MDA-MB-231 breast): 2.45 µM
TGI (LOX IMVI melanoma): 2.93 µM
TGI (CAKI-1 renal): 3.05 µM
TGI (DU-145 prostate): 3.1 µM

CCCCN(CCCC)CCC(O)c1cc(-c2ccc(C(F)(F)F)cc2)nc(-c2ccc(C(F)(F)F)cc2)c1 (configuration not stated)
TGI (ACHN renal): > 100 µM
TGI (IGROV1 ovarian): > 100 µM
TGI (OVCAR-5 ovarian): > 100 µM
TGI (K-562 leukemia): > 100 µM
TGI (SR leukemia): > 100 µM
TGI (U251 CNS): > 100 µM
TGI (HCT-15 colon): > 100 µM
TGI (SW-620 colon): > 100 µM
TGI (EKVX NSCLC): > 100 µM
TGI (RPMI-8226 leukemia): > 100 µM
TGI (MOLT-4 leukemia): > 100 µM
TGI (HOP-92 NSCLC): > 100 µM
TGI (NCI/ADR-RES ovarian): > 100 µM
TGI (UO-31 renal): > 100 µM
TGI (MALME-3M melanoma): > 100 µM
TGI (SF-539 CNS): > 100 µM
TGI (SK-MEL-28 melanoma): > 100 µM
TGI (SF-295 CNS): > 100 µM
TGI (NCI-H23 lung): > 100 µM
TGI (M14 melanoma): > 100 µM
TGI (PC-3 prostate): > 100 µM
TGI (HL-60(TB) leukemia): > 100 µM
TGI (UACC-62 melanoma): > 100 µM
TGI (TK-10 renal): > 100 µM
TGI (HT29 colon): > 100 µM
TGI (CCRF-CEM leukemia): > 100 µM
TGI (NCI-H460 lung): > 100 µM
TGI (UACC-257 melanoma): > 100 µM
TGI (SNB-75 CNS): > 100 µM
TGI (COLO 205 colon): > 100 µM
TGI (SF-268 CNS): > 100 µM
TGI (MDA-MB-435): > 100 µM
TGI (A498 renal): > 100 µM
TGI (SN12C renal): > 100 µM
TGI (NCI-H522 lung): > 100 µM
TGI (HCC-2998 colon): > 100 µM
TGI (SK-MEL-2 melanoma): > 100 µM
TGI (HCT-116 colon): > 100 µM
TGI (MDA-N): > 100 µM
TGI (OVCAR-8 ovarian): > 100 µM
TGI (MDA-MB-231 breast): > 100 µM
TGI (786-0 renal): > 100 µM
TGI (LOX IMVI melanoma): > 100 µM
TGI (SNB-19 CNS): > 100 µM
TGI (OVCAR-3 ovarian): > 100 µM
TGI (OVCAR-4 ovarian): > 100 µM
TGI (MCF7 breast): > 100 µM
TGI (CAKI-1 renal): > 100 µM
TGI (HOP-62 NSCLC): > 100 µM
TGI (DU-145 prostate): > 100 µM
TGI (T-47D breast): > 100 µM
